≈ marks a conversion by molar mass, not a printed value.
Assays:
Assay type in all cases: cell-based
[1] = test system: E. coli JT39; assay: MIC by standard microtitre technique, ampicillin with and without inhibitor; conditions: dilution in trytone soy broth
Description: (§1) By a standard microtitre technique the MIC values for ampicillin alone, ampicillin and 9-(4-benzyl piperazinyldeoxyclavulanic acid and 9-(4-benzyl)piperazin -1-yldeoxyclavulanic acid alone were determined.

[2] = test system: Kleb. aerogenes E70; assay: as above; conditions: dilution in trytone soy broth
Description: as §1

[3] = test system: Staph. aureus Russell; assay: as above; conditions: dilution in trytone soy broth
Description: as §1

[4] = test system: S. aureus Russell; assay: MIC by standard microtitre technique, amoxycillin with and without compound
[5] = test system: K. aerogenes E70; assay: as above
[6] = test system: E. coli JT39; assay: as above
[7] = Ampicillin + inhibitor at 1µg/ml
[8] = Ampicillin + inhibitor at 5µg/ml
[9] = Amoxycillin + compound, concentration of inhibitor 1.0 µg/ml
[10] = Amoxycillin + compound, concentration of inhibitor 5.0 µg/ml

## O=C(O)[C@H]1/C(=C/CN2CCN(Cc3ccccc3)CC2)O[C@@H]2CC(=O)N21 [Example 2, 9-(4-Benzylpiperazin-1-yl)deoxyclavulanic acid]
[1]; [7]
  MIC: 62 µg/mL
[1]; [8]
  MIC: 16 µg/mL
[1]; Inhibitor alone
  MIC: >500 µg/mL
[2]; [7]
  MIC: 25 µg/mL
[2]; [8]
  MIC: 3.1 µg/mL
[2]; Inhibitor alone
  MIC: 500 µg/mL (≈ 1400 µM)
[3]; [7]
  MIC: 0.3 µg/mL
[3]; [8]
  MIC: <0.01 µg/mL
[3]; Inhibitor alone
  MIC: 16 µg/mL (≈ 44.8 µM)

## CC1CN(C/C=C2\O[C@@H]3CC(=O)N3[C@H]2C(=O)O)CC(C)O1 (stereo partly shown) [Example 13, 9-(2,6-DimethyLmorpholino)deoxyclavulanic acid]
[4]; [9]
  MIC: 1.25 µg/mL
[4]; [10]
  MIC: 0.3 µg/mL
[5]; [9]
  MIC: 6.2 µg/mL
[5]; [10]
  MIC: 1.5 µg/mL
[6]; [9]
  MIC: 31.2 µg/mL
[6]; [10]
  MIC: 4.0 µg/mL

## O=C(O)[C@H]1/C(=C/CN2CCOCC2)O[C@@H]2CC(=O)N21 [Example 11, 9-(Morpholino)deoxyclavulanic acid]
[4]; [9]
  MIC: 0.6 µg/mL
[4]; [10]
  MIC: 0.15 µg/mL
[5]; [9]
  MIC: 3.1 µg/mL
[5]; [10]
  MIC: 1.5 µg/mL
[6]; [9]
  MIC: 16.0 µg/mL
[6]; [10]
  MIC: 4.0 µg/mL

## O=C(OCc1ccc([N+](=O)[O-])cc1)[C@H]1/C(=C/CN2CCSCC2)O[C@@H]2CC(=O)N21 [Example 8, p-Nitrobenzyl 9-(thiomorpholino)deoxyclavulanate]
[4]; [9]
  MIC: 0.62 µg/mL
[5]; [9]
  MIC: 3.1 µg/mL
[5]; [10]
  MIC: 1.6 µg/mL
[6]; [9]
  MIC: 8.0 µg/mL
[6]; [10]
  MIC: 2.0 µg/mL

## O=C(O)[C@H]1/C(=C/CN2CCN(c3ccccc3)CC2)O[C@@H]2CC(=O)N21 [Example 15, 9-(4-Phenylpiperazin-l-yl)deoxyclavulanic acid]
[4]; [9]
  MIC: 0.16 µg/mL
[5]; [9]
  MIC: 12.5 µg/mL
[5]; [10]
  MIC: 6.2 µg/mL
[6]; [9]
  MIC: 31.2 µg/mL
[6]; [10]
  MIC: 4.0 µg/mL

## CC1(C)S[C@@H]2[C@H](NC(=O)[C@H](N)c3ccccc3)C(=O)N2[C@H]1C(=O)O [Ampicillin, ampicillin, reference compound]
[1]; Ampicillin alone
  MIC: >2000 µg/mL
[2]; Ampicillin alone
  MIC: 1000 µg/mL (≈ 2860 µM)
[3]; Ampicillin alone
  MIC: 1000 µg/mL (≈ 2860 µM)

## CC1(C)S[C@@H]2[C@H](NC(=O)[C@H](N)c3ccc(O)cc3)C(=O)N2[C@H]1C(=O)O [Amoxycillin, reference compound]
[4]; Amoxycillin alone
  MIC: 500 µg/mL (≈ 1370 µM)
[5]; Amoxycillin alone
  MIC: 500 µg/mL (≈ 1370 µM)
[6]; Amoxycillin alone
  MIC: 500 µg/mL (≈ 1370 µM)

## CCOC(=O)N1CCN(C/C=C2\O[C@@H]3CC(=O)N3[C@H]2C(=O)O)CC1 [Example 4, 9-(4-Ethoxycarbonylpiperazin-1-yl)deoxyclavulanic acid]
[4]; [9]
  MIC: 1.25 µg/mL
[4]; [10]
  MIC: 0.3 µg/mL
[5]; [9]
  MIC: 6.2 µg/mL
[5]; [10]
  MIC: 1.5 µg/mL
[6]; [9]
  MIC: 31.2 µg/mL
[6]; [10]
  MIC: 4.0 µg/mL

Reference: patent publication EP0028083A1, “Derivatives of clavulanic acid, a process for their preparation and pharmaceutical compositions containing them” (BEECHAM GROUP PLC, priority 1979, dated 1981)
